Laboratory results published in PubChem BioAssay (NCI).
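The compound was tested at five concentrations on cells cultured in 96-well plates, with a 48-hour exposure period. At the GI50, growth is halved. The concentration for full growth arrest is given as TGI.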

What was measured:
Assay in all cases: NCI anticancer screen, dose series, 48 h
PC-3 prostate = system: PC-3 prostate
HCT-116 colon = system: HCT-116 colon
NCI-H522 lung = system: NCI-H522 lung
SK-MEL-28 melanoma = system: SK-MEL-28 melanoma
MOLT-4 leukemia = system: MOLT-4 leukemia
KM12 colon = system: KM12 colon
OVCAR-4 ovarian = system: OVCAR-4 ovarian
HOP-92 NSCLC = system: HOP-92 NSCLC
EKVX NSCLC = system: EKVX NSCLC
DU-145 prostate = system: DU-145 prostate

Row | Structure (SMILES) | TGI (PC-3 prostate) [µM] | TGI (HCT-116 colon) [µM] | TGI (NCI-H522 lung) [µM] | TGI (SK-MEL-28 melanoma) [µM] | TGI (MOLT-4 leukemia) [µM] | TGI (KM12 colon) [µM] | TGI (OVCAR-4 ovarian) [µM] | TGI (HOP-92 NSCLC) [µM] | TGI (EKVX NSCLC) [µM] | TGI (DU-145 prostate) [µM] | GI50 (PC-3 prostate) [µM] | GI50 (HCT-116 colon) [µM] | GI50 (NCI-H522 lung) [µM] | GI50 (SK-MEL-28 melanoma) [µM] | GI50 (MOLT-4 leukemia) [µM] | GI50 (KM12 colon) [µM] | GI50 (OVCAR-4 ovarian) [µM] | GI50 (HOP-92 NSCLC) [µM] | GI50 (EKVX NSCLC) [µM]
1 | CC(C)CCn1nc(N)c2nc3ccccc3nc21 | > 100 | > 100 | > 100 | > 100 | 94.9 | > 100 | > 100 | > 100 | > 100 | – | – | – | – | – | – | – | – | – | –
2 | CCOC(=O)C1(C(=O)OCC)CCCN1C(=O)[C@H](CNC(=O)OC(C)(C)C)NC(=O)OCc1ccccc1 | > 100 | > 100 | – | > 100 | > 100 | > 100 | > 100 | – | > 100 | > 100 | – | – | – | – | – | – | – | – | –
3 | COc1cc(C=C2C(=O)NC(=S)NC2=O)cc(OC)c1OC | > 100 | > 100 | – | > 100 | > 100 | > 100 | > 100 | > 100 | > 100 | > 100 | – | – | – | – | – | – | – | – | –
4 | Cc1cc2nc(-c3cc(C(C)(C)C)c(O)c(C(C)(C)C)c3)[nH]c2cc1C | > 100 | – | > 100 | > 100 | 27.1 | > 28.8 | > 23.3 | > 100 | > 100 | > 100 | – | – | – | – | – | – | – | – | –
5 | Cc1ccc(-c2c(C#N)c(-c3ccc([N+](=O)[O-])cc3)c(C#N)c(=O)n2NS(=O)(=O)c2ccccc2)cc1 | > 100 | > 100 | > 100 | > 100 | 52.8 | > 100 | > 100 | 85.9 | > 100 | – | – | – | – | – | – | – | – | – | –
6 | CC1(C)[C@@H](Cn2cnc3c(Cl)nc(N)nc32)CC[C@@]1(C)CO | > 100 | > 100 | – | > 100 | – | > 100 | > 100 | > 100 | > 100 | > 100 | – | – | – | – | – | – | – | – | –
7 | Nc1nc(Nc2ccc(Cl)cc2)sc1C(=O)c1cccs1 | > 100 | > 100 | – | > 100 | > 100 | > 100 | > 100 | > 100 | 69.7 | > 100 | – | – | – | – | – | – | – | – | –
8 | O=C(OCc1ccccc1)C(Cc1ccccc1)N(Cc1ccccc1)Cc1ccccc1 (centres undefined) | – | > 100 | > 100 | > 100 | > 100 | > 100 | > 100 | > 100 | > 100 | – | – | – | – | – | – | – | – | – | –
9 | Cc1c(C#N)c(N)n(C2OCC(O)C(O)C2O)c(=S)c1C#N (centres undefined) | > 100 | – | > 100 | > 100 | > 100 | > 100 | – | – | – | > 100 | – | – | – | – | – | – | – | – | –
10 | CSC(SC)=C1C(=O)N(c2ccccc2)N=C1C | > 100 | 54 | 59 | – | 52.9 | > 100 | > 100 | 33.7 | 54.6 | – | – | – | – | – | – | – | – | – | –
11 | COC(=O)C1=C(O)C(C(=O)OC)[C@@]2(O)[C@@H](C(=O)OC)[C@H](C)[C@@H](C)[C@@H]1[C@@H]2C(=O)OC (some centres undefined) | – | > 100 | 92.2 | > 100 | > 100 | > 100 | – | – | > 100 | > 100 | – | – | – | – | – | – | – | – | –
12 | CN(C)P(=O)(Oc1occc1C(O)Cc1ccccc1)N(C)C (centres undefined) | > 100 | > 100 | > 100 | > 100 | – | > 100 | > 100 | – | > 100 | – | – | – | – | – | – | – | – | – | –
13 | COc1cc(CNc2nc3cc(C(F)(F)F)ccc3nc2-c2ccccc2)cc(OC)c1OC | – | > 100 | > 100 | > 100 | > 100 | 53 | – | – | 50.2 | > 100 | – | – | – | – | – | – | – | – | –
14 | COc1cc2c(c(O)c1O)-c1ccc(OC)c(=O)cc1C(NC(C)=O)CC2 (centres undefined) | – | > 62.8 | 6.48 | > 100 | > 64.3 | 25.7 | > 84.2 | 31.1 | > 100 | – | – | – | – | – | – | – | – | – | –
15 | O=C1CCc2ccc3c(c21)CC1(Cc2ccccc2C1)C3 | > 100 | 17.6 | 92.4 | 88.9 | > 100 | 46 | > 100 | 45.9 | – | > 100 | – | – | – | – | – | – | – | – | –
16 | CCN1C(=O)N(CC)C2Nn3c(s/c(=C4\C(=O)N(C)c5ccccc54)c3=O)=NC21 (centres undefined) | > 100 | > 100 | > 100 | > 100 | > 100 | > 100 | > 100 | > 100 | > 100 | – | 3.52 | 1.95 | 2.98 | 6.45 | 3.92 | 2.91 | 1.98 | 69.5 | 2.25
17 | OC1(c2ccc(Cl)cc2)c2ccc(CN3CCCC3)cc2C2=NCCN21 (centres undefined) | 27.2 | 27.1 | – | 22.7 | 41.9 | 27.6 | 25.1 | 16.1 | 32.7 | 32.2 | – | – | – | – | – | – | – | – | –
18 | CC/C(Cl)=N\OC(=O)Nc1ccc(F)c([N+](=O)[O-])c1 | 32.4 | 30.6 | – | 33.9 | > 36.3 | 34.2 | 14.7 | 12 | 35.6 | 36.9 | – | – | – | – | – | – | – | – | –
19 | O=C(c1ccccc1)N1C(=S)N=C(Nc2ccccc2)C1=Nc1ccccc1 | > 100 | > 100 | > 100 | > 100 | > 100 | > 100 | > 100 | – | > 100 | > 100 | – | – | – | – | – | – | – | – | –
20 | CC1(C)OC2CC(=O)OCC23C1CC(=O)C1(C)C3CCC2(C)C(c3ccoc3)OC(=O)C3OC321 (centres undefined) | – | > 125 | > 125 | > 125 | > 125 | > 125 | > 125 | – | > 58 | – | – | – | – | – | – | – | – | – | –
21 | C[C@]12CC[C@H](O)C=C1CC[C@@H]1[C@@H]2CC[C@]2(C)C(c3ccc(=O)oc3)CC[C@]12O (some centres undefined) | – | 0.0674 | 0.0155 | 0.222 | < 0.0125 | 0.129 | 0.0356 | 0.0448 | 0.145 | – | – | – | – | – | – | – | – | – | –
22 | CC(C)(C)OC(=O)n1c(-c2ccccc2F)cc(=O)c2cc3c(cc21)OCO3 | > 100 | > 31.8 | – | > 100 | 10 | – | > 100 | > 100 | > 100 | > 100 | – | – | – | – | – | – | – | – | –
23 | O=C(O)CC(NC(=O)/C(=C/c1ccccc1O)NC(=O)c1ccccc1)C(=O)O (centres undefined) | > 100 | > 100 | > 100 | > 100 | > 100 | > 100 | > 100 | – | > 100 | – | – | – | – | – | – | – | – | – | –
24 | O=[N+]([O-])c1ccc(C2=Nc3ccccc3SC(c3ccccc3)C2)cc1 (centres undefined) | – | 24.2 | 26.7 | 41.6 | > 100 | 32.2 | 27.3 | – | 44.3 | – | – | – | – | – | – | – | – | – | –
